The text below walks through data of patent US20110293744A1, “BENZOXAZOLE INHIBITORS OF POLY(ADP-RIBOSE)POLYMERASE” (ABBOTT LABORATORIES, priority 2009, published 2011).

The structures appear in SMILES notation.

This test has as its target T1, Recombinant Human Poly(ADP-Ribose) Polymerase (PARP), PARP-1 (Homo sapiens, UniProt P09874).
T1 construct: purchased Trevigen; host or cells: E. coli
Description: PARP Enzyme Inhibition Assay (PARP1, SPA/FlashPlate). The test is classed as biochemical. Conditions: 1 nM PARP enzyme, [3H]-NAD+, 200 nM biotinylated histone H1, 200 nM slDNA. The method, then: Nicotinamide[2,5′,8-3H]adenine dinucleotide and strepavidin SPA beads were purchased from Amersham Biosiences. Recombinant Human Poly(ADP-Ribose) Polymerase (PARP), purified from E. coli and 6-Biotin-17-NAD^+, were purchase from Trevigen. NAD^+, histone, aminobenzamide, 3-amino benzamide and Calf Thymus DNA (dcDNA) were purchased from Sigma. Stem loop oligonucleotide containing MCAT sequence was obtained from Qiagen. The oligos were dissoloved to 1 mM in annealing buffer containing 10 mM Tris HCl pH 7.5, 1 mM EDTA, and 50 mM NaCl, incubated for 5 minutes at 95° C., and annealed at 45° C. for 45 minutes. Histone H1 (95% electrophoretically pure) was purchased from Roche. Biotinylated histone H1 was prepared by treating the protein with Sulfo-NHS-LC-Biotin from Pierce. The biotinylation reaction was conducted by slowly and intermittently adding 3 equivalents of 10 mM Sulfo-NHS-LC-Biotin to 100 μM Histone H1 in phosphate-buffered saline, pH 7.5, at 4° C. with gentle vortexing over 1 minute followed by subsequent 4° C. incubation for 1 hour. Streptavidin coated (FlashPlate Plus) microplates were purchased from Perkin Elmer.
PARP1 assay was conducted in PARP assay buffer containing 50 mM Tris pH 8.0, 1 mM DTT, 4 mM MgCl2. PARP reactions contained […] [^3H]-NAD^+ (1.6 uCi/mmol), 200 nM biotinylated histone H1, 200 nM slDNA, and 1 nM PARP enzyme. Auto reactions utilizing SPA bead-based detection were carried out in 100 μL volumes in white 96 well plates. Reactions were initiated by adding 50 μl of 2×NAD^+ substrate mixture to 50 μL of 2× enzyme mixture containing PARP and DNA. These reactions were terminated by the addition of 150 μL of 1.5 mM benzamide (˜1000-fold over its IC50). 170 μL of the stopped reaction mixtures were transferred to streptavidin Flash Plates, incubated for 1 hour, and counted using a TopCount microplate scintillation counter.

Usually Ki stands for the equilibrium dissociation constant of an inhibitor or competing ligand from its target.

T1 sequence (P09874 whole entry): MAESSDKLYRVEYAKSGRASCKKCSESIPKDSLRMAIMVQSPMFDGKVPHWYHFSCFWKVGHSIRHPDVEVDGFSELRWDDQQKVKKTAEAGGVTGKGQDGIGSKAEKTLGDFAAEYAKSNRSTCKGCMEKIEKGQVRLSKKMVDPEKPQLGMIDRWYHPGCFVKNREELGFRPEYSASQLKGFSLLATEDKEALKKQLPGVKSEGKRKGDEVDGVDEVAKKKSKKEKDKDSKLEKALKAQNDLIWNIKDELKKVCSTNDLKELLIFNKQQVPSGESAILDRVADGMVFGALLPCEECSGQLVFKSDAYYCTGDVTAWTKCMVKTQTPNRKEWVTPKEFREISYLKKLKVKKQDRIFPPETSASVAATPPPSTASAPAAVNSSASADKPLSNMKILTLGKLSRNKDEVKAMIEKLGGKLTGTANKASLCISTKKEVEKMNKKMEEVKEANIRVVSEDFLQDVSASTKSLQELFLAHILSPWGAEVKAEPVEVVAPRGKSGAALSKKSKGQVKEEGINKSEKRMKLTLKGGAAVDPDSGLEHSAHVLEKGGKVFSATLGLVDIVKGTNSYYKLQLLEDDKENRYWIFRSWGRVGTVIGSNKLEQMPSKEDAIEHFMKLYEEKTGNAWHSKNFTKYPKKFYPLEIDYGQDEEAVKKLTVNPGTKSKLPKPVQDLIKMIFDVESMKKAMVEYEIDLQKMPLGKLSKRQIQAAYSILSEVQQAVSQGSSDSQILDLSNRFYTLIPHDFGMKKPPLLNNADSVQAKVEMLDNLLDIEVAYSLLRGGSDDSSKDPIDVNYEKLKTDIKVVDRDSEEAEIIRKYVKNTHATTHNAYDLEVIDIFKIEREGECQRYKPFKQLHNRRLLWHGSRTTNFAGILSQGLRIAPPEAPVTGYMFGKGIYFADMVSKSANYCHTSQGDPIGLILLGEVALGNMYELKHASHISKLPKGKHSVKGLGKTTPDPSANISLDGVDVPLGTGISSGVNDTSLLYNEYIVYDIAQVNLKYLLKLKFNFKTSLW

In the case of `NC(=O)c1cccc2oc(-c3ccc(Br)cc3)nc12` [Example 1, 2-(4-bromophenyl)-1,3-benzoxazole-4-carboxamide], the Ki is 0.142 µM. With `NC(=O)c1cccc2oc(-c3ccc(-c4ccccc4)cc3)nc12` [Example 2, 2-(1,1′-biphenyl-4-yl)-1,3-benzoxazole-4-carboxamide] the figure was 9.18 µM; with `NC(=O)c1cccc2oc(-c3ccc(-c4cccnc4)cc3)nc12` [Example 3, 2-(4-pyridin-3-ylphenyl)-1,3-benzoxazole-4-carboxamide], 0.312 µM; with `NC(=O)c1cccc2nc(-c3ccc(Br)cc3)oc12` [Example 4, 2-(4-bromophenyl)-1,3-benzoxazole-7-carboxamide], 0.048 µM. For `NC(=O)c1cccc2nc(-c3ccc(-c4ccccc4)cc3)oc12` [Example 5, 2-(1,1′-biphenyl-4-yl)-1,3-benzoxazole-7-carboxamide] the value was 0.196 µM. For `NC(=O)c1cccc2nc(-c3ccc(-c4ccc5c(c4)OCO5)cc3)oc12` [Example 6, 2-[4-(1,3-benzodioxol-5-yl)phenyl]-1,3-benzoxazole-7-carboxamide] the value was 0.841 µM. Regarding `NC(=O)c1cccc2nc(-c3ccc(-c4cc[nH]n4)cc3)oc12` [Example 7, 2-[4-(1H-pyrazol-3-yl)phenyl]-1,3-benzoxazole-7-carboxamide], the Ki was found to be 0.109 µM. For `NC(=O)c1cccc2nc(-c3ccc(-c4cccc(N)c4)cc3)oc12` [Example 8, 2-(3′-amino-1,1′-biphenyl-4-yl)-1,3-benzoxazole-7-carboxamide] the value was 3.25 µM; for `NC(=O)c1cccc2nc(-c3ccc(-c4cccnc4)cc3)oc12` [Example 9, 2-(4-pyridin-3-ylphenyl)-1,3-benzoxazole-7-carboxamide], 0.063 µM. With `NC(=O)c1cccc2nc(-c3ccc(-c4ccncc4)cc3)oc12` [Example 10, 2-(4-pyridin-4-ylphenyl)-1,3-benzoxazole-7-carboxamide] the figure was 1.62 µM; with `NC(=O)c1cccc2nc(-c3ccc(-c4ccccn4)cc3)oc12` [Example 11, 2-(4-pyridin-2-ylphenyl)-1,3-benzoxazole-7-carboxamide], 0.011 µM. For `NC(=O)c1cccc2oc(-c3ccccc3)nc12` [Example 12, 2-phenyl-1,3-benzoxazole-4-carboxamide] the value was 0.506 µM.
